What was measured:
Experiment in all cases: KINOMEscan competition binding
AURKC (human) = AURKC (human) (UniProt Q9UQB9); settings: compound 10.0 µM
CAMK1D (human) = CAMK1D (human) (UniProt Q8IU85); settings: compound 10.0 µM
CDC42BPA (human) = CDC42BPA (human) (UniProt Q5VT25); settings: compound 10.0 µM
CDK11B (human) = CDK11B (human) (UniProt P21127); settings: compound 10.0 µM
CDK14 (human) = CDK14 (human) (UniProt O94921); settings: compound 10.0 µM
CDK2 (human) = CDK2 (human) (UniProt P24941); settings: compound 10.0 µM
CSNK1A1 (human) = CSNK1A1 (human) (UniProt P48729); settings: compound 10.0 µM
EPHA2 (human) = EPHA2 (human) (UniProt P29317); settings: compound 10.0 µM
EPHA4 (human) = EPHA4 (human) (UniProt P54764); settings: compound 10.0 µM
[1] = tested on: FLT3 (human), P36888 [D835H]; settings: compound 10.0 µM
ICK (human) = ICK (human) (UniProt Q9UPZ9); settings: compound 10.0 µM
IKBKE (human) = IKBKE (human) (UniProt Q14164); settings: compound 10.0 µM
[2] = target: JAK1 JH1 catalytic (human) (UniProt P23458); settings: compound 10.0 µM
LTK (human) = LTK (human) (UniProt P29376); settings: compound 10.0 µM
MAP2K7 (human) = MAP2K7 (human) (UniProt O14733); settings: compound 10.0 µM
MAP2K7 (human), sequence (O14733 whole entry, looked up): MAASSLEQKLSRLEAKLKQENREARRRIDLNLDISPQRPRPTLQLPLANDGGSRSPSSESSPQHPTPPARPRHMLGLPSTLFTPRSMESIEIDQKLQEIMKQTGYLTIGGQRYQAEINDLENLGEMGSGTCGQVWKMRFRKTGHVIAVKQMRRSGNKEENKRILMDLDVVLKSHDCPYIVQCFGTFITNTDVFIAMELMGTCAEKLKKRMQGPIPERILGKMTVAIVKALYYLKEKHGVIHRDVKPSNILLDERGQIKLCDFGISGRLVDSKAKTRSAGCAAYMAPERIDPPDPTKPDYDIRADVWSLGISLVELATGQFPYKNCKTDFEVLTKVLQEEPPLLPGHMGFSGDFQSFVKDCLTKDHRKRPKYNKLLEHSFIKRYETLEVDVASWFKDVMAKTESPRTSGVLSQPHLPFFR

MAP3K2 (human) = MAP3K2 (human) (UniProt Q9Y2U5); settings: compound 10.0 µM
MAP3K7 (human) = MAP3K7 (human) (UniProt O43318); settings: compound 10.0 µM
MAPK4 (human) = MAPK4 (human) (UniProt P31152); settings: compound 10.0 µM
[3] = tested on: MET (human), P08581 [Y1235D]; settings: compound 10.0 µM
MLTK (human) = MLTK (human) (UniProt Q9NYL2); settings: compound 10.0 µM
MUSK (human) = MUSK (human) (UniProt O15146); settings: compound 10.0 µM
MYLK4 (human) = MYLK4 (human) (UniProt Q86YV6); settings: compound 10.0 µM
NEK3 (human) = NEK3 (human) (UniProt P51956); settings: compound 10.0 µM
NEK6 (human) = NEK6 (human) (UniProt Q9HC98); settings: compound 10.0 µM
NLK (human) = NLK (human) (UniProt Q9UBE8); settings: compound 10.0 µM
NTRK3 (human) = NTRK3 (human) (UniProt Q16288); settings: compound 10.0 µM
NTRK3 (human), sequence (Q16288 whole entry, looked up): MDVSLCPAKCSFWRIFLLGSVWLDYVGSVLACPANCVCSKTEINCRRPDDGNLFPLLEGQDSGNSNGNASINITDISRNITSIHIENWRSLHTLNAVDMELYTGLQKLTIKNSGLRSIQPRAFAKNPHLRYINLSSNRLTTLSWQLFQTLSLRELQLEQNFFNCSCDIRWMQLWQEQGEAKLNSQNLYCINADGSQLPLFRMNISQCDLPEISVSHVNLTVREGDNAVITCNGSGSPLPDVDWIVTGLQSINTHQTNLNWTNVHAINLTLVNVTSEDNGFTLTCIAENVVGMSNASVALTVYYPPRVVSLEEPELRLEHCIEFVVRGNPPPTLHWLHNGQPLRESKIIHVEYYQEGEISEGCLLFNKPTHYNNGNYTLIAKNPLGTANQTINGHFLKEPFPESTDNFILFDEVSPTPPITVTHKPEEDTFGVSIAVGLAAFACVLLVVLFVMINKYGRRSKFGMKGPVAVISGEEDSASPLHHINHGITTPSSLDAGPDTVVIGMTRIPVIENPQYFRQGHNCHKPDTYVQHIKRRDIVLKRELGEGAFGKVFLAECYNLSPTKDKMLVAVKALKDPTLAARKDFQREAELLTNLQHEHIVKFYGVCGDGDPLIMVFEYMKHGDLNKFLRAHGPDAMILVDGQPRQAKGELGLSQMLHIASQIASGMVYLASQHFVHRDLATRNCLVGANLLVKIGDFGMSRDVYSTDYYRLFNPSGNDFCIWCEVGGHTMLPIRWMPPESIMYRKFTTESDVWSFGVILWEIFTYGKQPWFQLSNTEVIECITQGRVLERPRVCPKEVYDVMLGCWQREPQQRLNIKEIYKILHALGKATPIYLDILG

PHKG2 (human) = PHKG2 (human) (UniProt P15735); settings: compound 10.0 µM
PIK3C2G (human) = PIK3C2G (human) (UniProt O75747); settings: compound 10.0 µM
PIK3CA (human) = PIK3CA (human) (UniProt P42336); settings: compound 10.0 µM
PIK3CA (human), sequence (P42336 whole entry, looked up): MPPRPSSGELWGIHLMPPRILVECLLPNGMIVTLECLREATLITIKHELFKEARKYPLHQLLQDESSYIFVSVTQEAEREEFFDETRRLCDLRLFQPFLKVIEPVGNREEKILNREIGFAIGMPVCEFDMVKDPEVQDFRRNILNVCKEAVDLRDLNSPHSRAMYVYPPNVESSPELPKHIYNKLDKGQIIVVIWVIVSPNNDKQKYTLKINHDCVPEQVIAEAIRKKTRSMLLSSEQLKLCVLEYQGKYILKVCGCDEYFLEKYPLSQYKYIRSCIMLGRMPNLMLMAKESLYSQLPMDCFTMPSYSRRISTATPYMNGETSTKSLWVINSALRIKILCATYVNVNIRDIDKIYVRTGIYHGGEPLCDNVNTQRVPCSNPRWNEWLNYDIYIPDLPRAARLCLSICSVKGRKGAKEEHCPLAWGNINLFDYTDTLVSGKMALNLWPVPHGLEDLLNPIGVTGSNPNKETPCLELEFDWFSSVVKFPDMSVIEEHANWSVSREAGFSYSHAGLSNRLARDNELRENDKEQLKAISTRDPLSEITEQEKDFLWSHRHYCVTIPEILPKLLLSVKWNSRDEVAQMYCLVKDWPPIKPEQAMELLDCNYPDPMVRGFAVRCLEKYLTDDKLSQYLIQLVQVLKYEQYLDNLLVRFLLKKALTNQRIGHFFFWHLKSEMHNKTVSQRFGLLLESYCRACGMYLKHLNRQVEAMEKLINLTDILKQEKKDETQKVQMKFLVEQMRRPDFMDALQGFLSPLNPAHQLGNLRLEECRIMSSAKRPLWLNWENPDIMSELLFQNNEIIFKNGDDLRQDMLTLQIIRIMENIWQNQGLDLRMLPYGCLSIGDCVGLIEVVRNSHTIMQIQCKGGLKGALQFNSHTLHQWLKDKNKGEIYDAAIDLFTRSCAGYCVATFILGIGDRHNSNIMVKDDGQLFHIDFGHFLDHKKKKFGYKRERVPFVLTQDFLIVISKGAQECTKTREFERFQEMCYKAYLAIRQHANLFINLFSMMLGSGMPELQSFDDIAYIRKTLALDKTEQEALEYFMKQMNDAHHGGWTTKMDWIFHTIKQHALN

[4] = tested on: PIK3CA (human), P42336 [H1047Y]; settings: compound 10.0 µM
PIK3CA (human), P42336 [H1047Y], sequence (P42336 whole entry H1047Y, looked up): as the sequence (P42336 whole entry, looked up) above, with H1047Y counted along it

PIK3CD (human) = PIK3CD (human) (UniProt O00329); settings: compound 10.0 µM
PRKCH (human) = PRKCH (human) (UniProt P24723); settings: compound 10.0 µM
PRKCH (human), sequence (P24723 whole entry, looked up): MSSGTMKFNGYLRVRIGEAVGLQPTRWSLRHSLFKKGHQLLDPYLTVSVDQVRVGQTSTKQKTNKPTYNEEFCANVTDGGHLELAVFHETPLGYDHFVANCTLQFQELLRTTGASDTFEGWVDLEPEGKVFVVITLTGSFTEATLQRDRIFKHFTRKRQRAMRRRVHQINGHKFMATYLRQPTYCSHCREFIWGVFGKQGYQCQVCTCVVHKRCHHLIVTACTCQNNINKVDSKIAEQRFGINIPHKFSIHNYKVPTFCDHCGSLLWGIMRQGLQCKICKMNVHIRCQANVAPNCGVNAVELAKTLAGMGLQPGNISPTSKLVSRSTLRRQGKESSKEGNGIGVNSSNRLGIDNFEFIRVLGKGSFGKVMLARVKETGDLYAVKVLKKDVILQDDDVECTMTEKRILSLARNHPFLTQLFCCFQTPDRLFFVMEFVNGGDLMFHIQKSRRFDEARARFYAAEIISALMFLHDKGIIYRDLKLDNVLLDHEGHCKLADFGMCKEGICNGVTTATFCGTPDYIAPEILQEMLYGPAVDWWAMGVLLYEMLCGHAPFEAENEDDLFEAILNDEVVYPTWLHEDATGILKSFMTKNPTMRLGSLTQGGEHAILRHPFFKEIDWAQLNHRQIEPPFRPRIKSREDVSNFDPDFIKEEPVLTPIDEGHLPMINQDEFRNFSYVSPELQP

[5] = tested on: RET (human), P07949 [V804L]; settings: compound 10.0 µM
RET (human), P07949 [V804L], sequence (P07949 whole entry V804L, looked up): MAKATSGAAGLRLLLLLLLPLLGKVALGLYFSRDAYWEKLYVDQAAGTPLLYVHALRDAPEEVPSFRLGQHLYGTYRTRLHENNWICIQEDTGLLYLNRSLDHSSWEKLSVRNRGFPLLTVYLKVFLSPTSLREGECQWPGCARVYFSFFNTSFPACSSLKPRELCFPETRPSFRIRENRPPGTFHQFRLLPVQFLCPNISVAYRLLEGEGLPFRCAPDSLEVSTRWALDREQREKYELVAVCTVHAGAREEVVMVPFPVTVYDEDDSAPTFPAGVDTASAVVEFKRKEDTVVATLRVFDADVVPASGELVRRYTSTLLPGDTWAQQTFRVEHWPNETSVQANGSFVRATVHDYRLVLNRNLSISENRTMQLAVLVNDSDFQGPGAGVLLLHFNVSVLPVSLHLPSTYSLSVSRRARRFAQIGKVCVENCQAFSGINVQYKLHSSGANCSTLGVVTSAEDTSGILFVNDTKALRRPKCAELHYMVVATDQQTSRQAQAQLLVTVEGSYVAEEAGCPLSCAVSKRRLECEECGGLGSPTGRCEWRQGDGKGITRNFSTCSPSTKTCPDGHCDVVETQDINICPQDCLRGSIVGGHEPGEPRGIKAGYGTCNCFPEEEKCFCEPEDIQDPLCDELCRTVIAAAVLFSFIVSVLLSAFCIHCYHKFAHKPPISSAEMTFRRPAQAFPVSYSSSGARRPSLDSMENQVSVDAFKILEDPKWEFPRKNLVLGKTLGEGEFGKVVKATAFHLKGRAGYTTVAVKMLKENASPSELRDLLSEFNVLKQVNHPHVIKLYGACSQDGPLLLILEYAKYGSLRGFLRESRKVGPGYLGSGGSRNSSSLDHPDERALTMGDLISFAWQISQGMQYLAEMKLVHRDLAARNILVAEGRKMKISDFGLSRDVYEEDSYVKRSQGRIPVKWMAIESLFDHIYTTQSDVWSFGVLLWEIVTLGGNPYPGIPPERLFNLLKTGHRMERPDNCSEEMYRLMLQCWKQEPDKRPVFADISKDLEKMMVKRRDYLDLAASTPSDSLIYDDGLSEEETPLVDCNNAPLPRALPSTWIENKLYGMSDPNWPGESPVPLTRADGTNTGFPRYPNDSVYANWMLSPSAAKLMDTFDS

ROCK2 (human) = ROCK2 (human) (UniProt O75116); settings: compound 10.0 µM
RPS6KA6 KD2 (human) = RPS6KA6 KD2 (human) (UniProt Q9UK32)
RPS6KA6 KD2 (human), sequence (Q9UK32 whole entry, looked up): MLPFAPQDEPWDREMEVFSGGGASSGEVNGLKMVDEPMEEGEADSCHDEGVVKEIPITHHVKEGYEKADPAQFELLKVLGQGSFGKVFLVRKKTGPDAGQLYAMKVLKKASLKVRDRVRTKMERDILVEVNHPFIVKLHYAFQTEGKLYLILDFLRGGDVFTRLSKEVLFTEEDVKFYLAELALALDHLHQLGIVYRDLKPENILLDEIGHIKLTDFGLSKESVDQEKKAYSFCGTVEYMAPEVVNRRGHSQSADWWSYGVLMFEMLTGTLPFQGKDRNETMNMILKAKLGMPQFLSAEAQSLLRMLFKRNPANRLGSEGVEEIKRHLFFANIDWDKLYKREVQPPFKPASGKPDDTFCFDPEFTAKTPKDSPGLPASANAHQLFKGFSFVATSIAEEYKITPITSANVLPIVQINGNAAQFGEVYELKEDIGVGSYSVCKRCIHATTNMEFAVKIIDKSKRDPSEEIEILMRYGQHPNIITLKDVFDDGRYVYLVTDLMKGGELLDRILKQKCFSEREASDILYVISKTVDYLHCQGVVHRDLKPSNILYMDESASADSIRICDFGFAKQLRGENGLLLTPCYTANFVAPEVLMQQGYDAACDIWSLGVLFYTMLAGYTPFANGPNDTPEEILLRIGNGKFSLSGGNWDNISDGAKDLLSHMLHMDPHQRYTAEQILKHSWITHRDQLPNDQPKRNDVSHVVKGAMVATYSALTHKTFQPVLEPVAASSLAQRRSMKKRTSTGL

SRMS (human) = SRMS (human) (UniProt Q9H3Y6); settings: compound 10.0 µM
TNIK (human) = TNIK (human) (UniProt Q9UKE5); settings: compound 10.0 µM
TRPM6 (human) = TRPM6 (human) (UniProt Q9BX84); settings: compound 10.0 µM
TXK (human) = TXK (human) (UniProt P42681); settings: compound 10.0 µM
YSK4 (human) = YSK4 (human) (UniProt Q56UN5); settings: compound 10.0 µM
ZAP70 (human) = ZAP70 (human) (UniProt P43403); settings: compound 10.0 µM

Question: Which kinase still bound, per cent of control (AURKC (human)) does the source give for `COc1cc(C(=O)N2CCC(N3CCN(C)CC3)CC2)ccc1Nc1ncc2c(n1)N(C)c1ccccc1C(=O)N2C` here?
Answer: 50%

Question: What about the kinase still bound, per cent of control (CAMK1D (human)) of the same compound?
Answer: 69%

Question: And the kinase still bound, per cent of control (CDC42BPA (human))?
Answer: 100%

Question: What about the residual activity (CDK11B (human)) of the same compound?
Answer: 84%

Question: And the residual activity (CDK14 (human))?
Answer: 81%

Question: And the residual activity (CDK2 (human))?
Answer: 100%

Question: What about the kinase still bound, per cent of control (CSNK1A1 (human)) of the same compound?
Answer: 100%

Question: What about the kinase still bound, per cent of control (EPHA2 (human)) of the same compound?
Answer: 92%

Question: What about the kinase still bound, per cent of control (EPHA4 (human)) of the same compound?
Answer: 89%

Question: And the kinase still bound, per cent of control [1]?
Answer: 100%

Question: And the kinase still bound, per cent of control (ICK (human))?
Answer: 90%

Question: What about the kinase still bound, per cent of control (IKBKE (human)) of the same compound?
Answer: 96%

Question: What about the kinase still bound, per cent of control [2] of the same compound?
Answer: 100%

Question: What about the kinase still bound, per cent of control (LTK (human)) of the same compound?
Answer: 32%

Question: What about the kinase still bound, per cent of control (MAP2K7 (human)) of the same compound?
Answer: 100%

Question: What about the kinase still bound, per cent of control (MAP3K2 (human)) of the same compound?
Answer: 97%

Question: And the kinase still bound, per cent of control (MAP3K7 (human))?
Answer: 98%

Question: And the kinase still bound, per cent of control (MAPK4 (human))?
Answer: 100%

Question: And the kinase still bound, per cent of control [3]?
Answer: 100%

Question: And the kinase still bound, per cent of control (MLTK (human))?
Answer: 99%

Question: And the kinase still bound, per cent of control (MUSK (human))?
Answer: 99%

Question: And the kinase still bound, per cent of control (MYLK4 (human))?
Answer: 80%

Question: What about the kinase still bound, per cent of control (NEK3 (human)) of the same compound?
Answer: 100%

Question: And the kinase still bound, per cent of control (NEK6 (human))?
Answer: 76%

Question: And the kinase still bound, per cent of control (NLK (human))?
Answer: 50%

Question: And the kinase still bound, per cent of control (NTRK3 (human))?
Answer: 100%

Question: What about the kinase still bound, per cent of control (PHKG2 (human)) of the same compound?
Answer: 33%

Question: And the kinase still bound, per cent of control (PIK3C2G (human))?
Answer: 100%

Question: What about the kinase still bound, per cent of control (PIK3CA (human)) of the same compound?
Answer: 74%

Question: What about the kinase still bound, per cent of control [4] of the same compound?
Answer: 71%

Question: What about the kinase still bound, per cent of control (PIK3CD (human)) of the same compound?
Answer: 62%

Question: And the kinase still bound, per cent of control (PRKCH (human))?
Answer: 100%

Question: And the kinase still bound, per cent of control [5]?
Answer: 89%

Question: What about the kinase still bound, per cent of control (ROCK2 (human)) of the same compound?
Answer: 87%

Question: What about the Kd (RPS6KA6 KD2 (human)) of the same compound?
Answer: 620 nM

Question: And the kinase still bound, per cent of control (RPS6KA6 KD2 (human); compound 10.0 µM)?
Answer: 2.2%

Question: What about the kinase still bound, per cent of control (SRMS (human)) of the same compound?
Answer: 77%

Question: And the kinase still bound, per cent of control (TNIK (human))?
Answer: 100%

Question: What about the kinase still bound, per cent of control (TRPM6 (human)) of the same compound?
Answer: 100%

Question: And the kinase still bound, per cent of control (TXK (human))?
Answer: 91%

Question: What about the kinase still bound, per cent of control (YSK4 (human)) of the same compound?
Answer: 99%

Question: What about the kinase still bound, per cent of control (ZAP70 (human)) of the same compound?
Answer: 79%

— the kinase profiling compilation of Christmann-Franck et al. (2016)
